The text below walks through data of ChEMBL document CHEMBL1143466, “Conformationally constrained N1-arylsulfonyltryptamine derivatives as 5-HT6 receptor antagonists” (Bioorg Med Chem Lett, 2005).

For experiment [1], the target named is T1, 5-hydroxytryptamine receptor 6 (Homo sapiens, UniProt P50406). The experiment in a line: Effective concentration for cAMP production in HeLa cells expressing human 5-HT6 receptors. In kind it is functional, cell-based. (In general: cAMP levels reflect the balance of adenylyl cyclase and phosphodiesterase activity.)
Experiment [2] deals with T1, 5-hydroxytryptamine receptor 6. The experiment in a line: Maximum effective concentration for cAMP production in HeLa cells expressing human 5-HT6 receptors. In kind it is functional, cell-based.
The target is the same in experiment [3]. The experiment in a line: Displacement of [3H]LSD from cloned human 5-hydroxytryptamine 6 receptor expressed in HeLa cells. In kind it is cell-based. A general note: Loss of bound radioactivity is the signal in a displacement assay; it reports binding, not function.

T1 sequence (P50406 whole entry): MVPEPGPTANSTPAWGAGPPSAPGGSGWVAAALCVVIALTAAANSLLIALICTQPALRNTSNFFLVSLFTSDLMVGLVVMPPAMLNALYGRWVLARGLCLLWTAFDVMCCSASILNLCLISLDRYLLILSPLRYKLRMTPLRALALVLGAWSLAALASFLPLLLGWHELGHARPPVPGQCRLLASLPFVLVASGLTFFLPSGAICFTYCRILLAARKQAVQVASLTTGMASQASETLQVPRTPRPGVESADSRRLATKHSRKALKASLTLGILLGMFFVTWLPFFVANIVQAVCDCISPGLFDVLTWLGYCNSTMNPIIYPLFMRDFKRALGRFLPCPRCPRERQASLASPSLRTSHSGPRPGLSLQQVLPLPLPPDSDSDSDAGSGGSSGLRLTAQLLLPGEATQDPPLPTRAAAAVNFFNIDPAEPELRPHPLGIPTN

As to `CN1CCC[C@@H]1Cc1cn(S(=O)(=O)c2ccc(Br)s2)c2ccccc12`, in experiment [1], it took 103 nM to reach a half-maximal effect (EC50). Besides, the Emax in experiment [2] was 76.5%. The affinity in experiment [3] corresponds to a Ki of 4 nM.
On the same counts, the results for `O=S(=O)(c1ccc(F)cc1)n1cc(C2=CCCNC2)c2ccccc21` are 345 nM, 62% and 10.5 nM.

What is called EC50 is the midpoint of the concentration-response curve. For orientation: Emax means the maximal effect, on the per cent scale that the assay sets. One may read the Ki as the dissociation constant of the complex between target and ligand, obtained from inhibition or displacement. Lower therefore signals a stronger hold on the target.
